Measurements from paper PMC4823711, “Allosteric Partial Inhibition of Monomeric Proteases. Sulfated Coumarins Induce Regulation, not just Inhibition, of Thrombin” (Scientific Reports, 2016).
“Also recorded” adds a separate entry of the source. Blank lines part the entries; values can stand above or below the compound they belong to.

Key:
thrombin [1] = target: thrombin (Homo sapiens, UniProt P00734); test: Chromogenic substrate hydrolysis assay, thrombin inhibition (Spectrozyme TH); type: biochemical; design: 6 nM plasma α-thrombin; purchased Haematologic Technologies (Essex Junction, VT); details: for thrombin inhibition (in words): up to 250 μM; for efficacy of thrombin inhibition (ΔY) / IC50: pH 7.4, 25 °C; for efficacy of thrombin inhibition (ΔY): at saturation; for IC50: read-out: IC50 against thrombin
Procedure: Chromogenic substrate hydrolysis assay was used to measure potency of inhibition, as previously reported. The assay was performed using Flexstation III (Molecular Devices, Sunnyvale, CA) by monitoring substrate hydrolysis at 405 nm. For thrombin and its mutants, 180 μL of buffer (20 mM Tris-HCl, 100 mM NaCl, 2.5 mM CaCl2, 0.1% (polyethylene glycol) PEG 8000, pH 7.4) was added to each well followed by 5 μL of 240 nM thrombin and 10 μL of sulfated coumarin in DMSO to give 0.002 to 250 μM final concentration (or 10 μL of DMSO alone). After incubation for 10 min at 25 °C, 5 μL of 2 mM Spectrozyme TH was added to each well simultaneously and allowed to react for 60 seconds at 25 °C while simultaneously monitoring the reaction to obtain the rate of increase in A405. Identical experimental conditions were used for reactions in the presence of antithrombin, except for 100 nM of antithrombin added prior to the addition of the substrate.
For factor XIa inhibition studies, 85 μL of buffer (50 mM Tris-HCl, 150 mM NaCl, 0.1% PEG 8000, 0.02% Tween 80, pH 7.4) was added to each well, followed by 7 μL of 15.3 nM enzyme and 3 μL of sulfated coumarin (3.75–500 μM final concentration) and incubated for 10 min at 37 °C. After the incubation period, 5 μL of 6.9 mM S-2366 was added to each well simultaneously and allowed to react for 300 sec at 37 °C. For factor Xa assay, 180 μL of buffer (20 mM Tris-HCl, 100 mM NaCl, 2.5 mM CaCl2, 0.1% PEG 8000, 0.02% Tween 80, pH 7.4) was added to each well followed by 5 μL of 43.5 nM enzyme, 10 μL of sulfated coumarin (0.002–250 μM final concentration). After a 10 min incubation, 5 μL of 5 mM Spectrozyme FXa was added to each well simultaneously and allowed to react for 300 seconds at 37 °C. The slopes generated from each experiment were used to calculate the fractional residual activity (Y) at each concentration of the inhibitor, and analyzed using logistic equation 1, in which YM is the maximum efficacy, Y0 is minimum efficacy and HS is the Hill slope.

thrombin [2] = details: cited from earlier work; for efficacy of thrombin inhibition (ΔY): orthosteric inhibitors
thrombin [3] = target: thrombin; design: method as in PMID 2007587; details: read-out: affinity for thrombin; cited from earlier work

- thrombin inhibition (in words) (thrombin [1]): not all 4-aryl derivatives were active
Compound: O=c1oc2ccc(OS(=O)(=O)O)cc2c(-c2ccccc2)c1-c1ccc(Cl)cc1 [2l]

- thrombin inhibition (in words) (thrombin [1]): not all 4-aryl derivatives were active
Compound: O=c1oc2cc(OS(=O)(=O)O)ccc2c(-c2ccccc2)c1-c1ccc(Br)cc1 [2o]

- thrombin inhibition (in words) (thrombin [1]): not all 4-aryl derivatives were active
Compound: O=c1oc2cc(OS(=O)(=O)O)ccc2c(-c2ccccc2)c1-c1ccc(O)c(OS(=O)(=O)O)c1 [2w]

- efficacy of thrombin inhibition (ΔY) (thrombin [1]): 73%
- IC50 (thrombin [1]): ≤ 1 µM
Compound: O=c1oc2cc(OCCCn3cc(COc4ccc5c(-c6ccccc6)c(-c6ccc(OS(=O)(=O)O)cc6)c(=O)oc5c4)nn3)ccc2c(-c2ccccc2)c1-c1ccc(OS(=O)(=O)O)cc1 [3a]

- efficacy of thrombin inhibition (ΔY) (thrombin [1]): 58%
- IC50 (thrombin [1]): ≤ 1 µM
Compound: O=c1oc2cc(OCCCCn3cc(COc4ccc5c(-c6ccccc6)c(-c6ccc(OS(=O)(=O)O)cc6)c(=O)oc5c4)nn3)ccc2c(-c2ccccc2)c1-c1ccc(OS(=O)(=O)O)cc1 [3b]

- efficacy of thrombin inhibition (ΔY) (thrombin [1]): 60%
Compound: O=c1oc2cc(OCCCn3cc(COc4ccc5cc(-c6ccc(OS(=O)(=O)O)cc6)c(=O)oc5c4)nn3)ccc2cc1-c1ccc(OS(=O)(=O)O)cc1 [3c]

Second part, the compound before the results:

Compound: O=c1oc2cc(OS(=O)(=O)O)ccc2c(-c2ccccc2)c1-c1ccccc1Cl [2d]
- thrombin inhibition (in words) (thrombin [1]): not all 4-aryl derivatives were active

Compound: O=c1oc2cc(OS(=O)(=O)O)ccc2c(-c2ccccc2)c1-c1cccc(Cl)c1 [2e]
- thrombin inhibition (in words) (thrombin [1]): active

Compound: O=c1oc2cc(OS(=O)(=O)O)ccc2c(-c2ccccc2)c1-c1ccc(Cl)cc1Cl [2k]
- thrombin inhibition (in words) (thrombin [1]): active

Compound: O=c1oc2cc(OS(=O)(=O)O)ccc2c(Cc2ccc(Cl)cc2)c1-c1ccccc1 [2p]
- thrombin inhibition (in words) (thrombin [1]): active

Compound: O=c1oc2c(Cl)cc(Cl)cc2c(-c2ccccc2)c1-c1ccc(OS(=O)(=O)O)cc1 [2x]
- thrombin inhibition (in words) (thrombin [1]): not all 4-aryl derivatives were active

Compound: O=c1oc2cc(OS(=O)(=O)O)ccc2c(-c2ccccc2)c1-c1ccc(OS(=O)(=O)O)cc1 [2y]
- thrombin inhibition (in words) (thrombin [1]): not all 4-aryl derivatives were active; also recorded: complete absence of inhibition potential

Compound: CC1CNc2c(cccc2S(=O)(=O)N[C@@H](CCCNC(=N)N)C(=O)N2CC[C@@H](C)C[C@@H]2C(=O)O)C1 (stereo partly shown) [argatroban]
- efficacy of thrombin inhibition (ΔY) (thrombin [2]): 100%

Compound: [H]/N=C(/N)c1ccc(NCc2nc3cc(C(=O)N(CCC(=O)O)c4ccccn4)ccc3n2C)cc1 [dabigatran]
- efficacy of thrombin inhibition (ΔY) (thrombin [2]): 100%

Compound: Cc1ccc(C(=O)Nc2ccc(S(=O)(=O)O)c3cc(S(=O)(=O)O)cc(S(=O)(=O)O)c23)cc1NC(=O)c1cccc(NC(=O)Nc2cccc(C(=O)Nc3cc(C(=O)Nc4ccc(S(=O)(=O)O)c5cc(S(=O)(=O)O)cc(S(=O)(=O)O)c45)ccc3C)c2)c1 [suramin]
- IC50 (thrombin [2]; read-out: IC50 of thrombin inhibition): 20 to 40 µM

Compound: Heparin hexasaccharide
- Kd (thrombin [3]): ~8 µM
- thrombin inhibition (in words) (thrombin [2]): not an inhibitor
